# Results published in ChEMBL document CHEMBL1201862, “PubChem BioAssay data set” (2004).
#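 Each compound was tested at five concentrations against cells in 96-well plates for 48 hours. Here, GI50 denotes the concentration required for 50% inhibition of growth.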 Calls of active or inactive are those of the source. Cut-off read from the data, not from the text of the source: active = GI50 up to about 1.1 µM and inactive = higher.
# Key:
# Assay in all cases: growth of human tumour cells (NCI), 48 h
# SK-MEL-2 = system: SK-MEL-2
# NCI-H522 = system: NCI-H522
# UO-31 = system: UO-31
# RPMI-8226 = system: RPMI-8226
# TK-10 = system: TK-10
# OVCAR-8 = system: OVCAR-8
# SN12C = system: SN12C
# HCC 2998 = system: HCC 2998
# KM12 = system: KM12
# COLO 205 = system: COLO 205
# CAKI-1 = system: CAKI-1
# SF-268 = system: SF-268
# NCI-H226 = system: NCI-H226
# 786-0 = system: 786-0
# A549 = system: A549
# MDA-MB-231 = system: MDA-MB-231
# SK-MEL-5 = system: SK-MEL-5
# MOLT-4 = system: MOLT-4
# SNB-19 = system: SNB-19
# MDA-N = system: MDA-N
# LOX IMVI = system: LOX IMVI
# MDA-MB-435 = system: MDA-MB-435
# SR = system: SR
# SK-OV-3 = system: SK-OV-3
# EKVX = system: EKVX
# HCT-116 = system: HCT-116
# CCRF-CEM = system: CCRF-CEM
# IGROV-1 = system: IGROV-1
# OVCAR-5 = system: OVCAR-5
# BT-549 = system: BT-549
# NCI/ADR-RES = system: NCI/ADR-RES
# Hs-578T = system: Hs-578T
# ACHN = system: ACHN
# SK-MEL-28 = system: SK-MEL-28
# SW-620 = system: SW-620
# UACC-62 = system: UACC-62
# MCF7 = system: MCF7
# NCI-H23 = system: NCI-H23
# RXF 393 = system: RXF 393
# UACC-257 = system: UACC-257
# U-251 = system: U-251
# DU-145 = system: DU-145
# OVCAR-3 = system: OVCAR-3
# HOP-62 = system: HOP-62
# K562 = system: K562
# OVCAR-4 = system: OVCAR-4
# A498 = system: A498
# HT-29 = system: HT-29
# M14 = system: M14
# SF-295 = system: SF-295
# SNB-75 = system: SNB-75
# NCI-H460 = system: NCI-H460
# T47D = system: T47D
# HCT-15 = system: HCT-15
# PC-3 = system: PC-3
# HL-60 = system: HL-60
structure (smiles),measurement,setting,value
O=C1N=C(c2ccccc2)OC1C(=O)c1ccccc1 (stereo unspecified),GI50,SK-MEL-2,> 100 µM (inactive)
same,GI50,NCI-H522,> 100 µM (inactive)
same,GI50,UO-31,> 100 µM (inactive)
same,GI50,RPMI-8226,> 100 µM (inactive)
same,GI50,TK-10,> 100 µM (inactive)
same,GI50,OVCAR-8,> 100 µM (inactive)
same,GI50,SN12C,> 100 µM (inactive)
same,GI50,HCC 2998,> 100 µM (inactive)
same,GI50,KM12,> 100 µM (inactive)
same,GI50,COLO 205,> 100 µM (inactive)
same,GI50,CAKI-1,> 100 µM (inactive)
same,GI50,SF-268,> 100 µM (inactive)
same,GI50,NCI-H226,> 100 µM (inactive)
same,GI50,786-0,> 100 µM (inactive)
same,GI50,A549,> 100 µM (inactive)
same,GI50,MDA-MB-231,> 100 µM (inactive)
same,GI50,SK-MEL-5,> 100 µM (inactive)
same,GI50,MOLT-4,> 100 µM (inactive)
same,GI50,SNB-19,> 100 µM (inactive)
same,GI50,MDA-N,> 100 µM (inactive)
same,GI50,LOX IMVI,> 100 µM (inactive)
same,GI50,MDA-MB-435,> 100 µM (inactive)
same,GI50,SR,> 100 µM (inactive)
same,GI50,SK-OV-3,> 100 µM (inactive)
same,GI50,EKVX,> 100 µM (inactive)
same,GI50,HCT-116,> 100 µM (inactive)
same,GI50,CCRF-CEM,> 100 µM (inactive)
same,GI50,IGROV-1,46.5 µM (inactive)
same,GI50,OVCAR-5,> 100 µM (inactive)
same,GI50,BT-549,> 100 µM (inactive)
same,GI50,NCI/ADR-RES,> 100 µM (inactive)
same,GI50,Hs-578T,> 100 µM (inactive)
same,GI50,ACHN,> 100 µM (inactive)
same,GI50,SK-MEL-28,> 100 µM (inactive)
same,GI50,SW-620,> 100 µM (inactive)
same,GI50,UACC-62,> 100 µM (inactive)
same,GI50,MCF7,> 100 µM (inactive)
same,GI50,NCI-H23,> 100 µM (inactive)
same,GI50,RXF 393,> 100 µM (inactive)
same,GI50,UACC-257,> 100 µM (inactive)
same,GI50,U-251,> 100 µM (inactive)
same,GI50,DU-145,> 100 µM (inactive)
same,GI50,OVCAR-3,> 100 µM (inactive)
same,GI50,HOP-62,> 100 µM (inactive)
same,GI50,K562,> 100 µM (inactive)
same,GI50,OVCAR-4,> 100 µM (inactive)
same,GI50,A498,> 100 µM (inactive)
same,GI50,HT-29,> 100 µM (inactive)
same,GI50,M14,> 100 µM (inactive)
same,GI50,SF-295,> 100 µM (inactive)
same,GI50,SNB-75,> 100 µM (inactive)
same,GI50,NCI-H460,> 100 µM (inactive)
same,GI50,T47D,> 100 µM (inactive)
same,GI50,HCT-15,> 100 µM
same,GI50,PC-3,> 100 µM (inactive)
same,GI50,HL-60,> 100 µM (inactive)
